Experimental data as given in patent publication US20030170704A1, “Substance capable of controlling the inclusion of exon 10 of the tau gene, and its therapeutic use against tauopathies” (Max-Planck-Gesellschaft Zur Foerd Der Wissen. E.V., priority 1999, published 2003).

Key:
[1] = test system: clk2 phosphorylation / exon 10 inclusion of the tau gene; assay: Changing clk2 phosphorylation levels by kinase/phosphatase inhibitors; assay type: cell-based
[2] = test system: tau exon 10 inclusion (SV10 minigene); assay: RT-PCR of tau exon 10 minigene SV10 1:1 co-transfected with splicing regulator cDNA plasmids in COS cells; assay type: cell-based, human; settings: 1:1 co-transfection, FIG. 4
Protocol: Plasmid DNA was purified by cesium chloride banding (Sambrook et al., 1989). The plasmids obtained in Examples 1 and 2 were introduced into cells by the lipofection method (LT1, Panvera).
Plates (100 mm) that had reached ˜30% confluence were transfected with 10 μg of construct DNA or 5 μg of each plasmid for co-transfections. The medium was changed 16 h after transfection, without glycerol shock.
Total RNA was isolated 48 h post-transfection by the TRIzol method (Life Technologies). […]
The RT-PCR experiments were done twice with the polyA^+ RNAs and with total RNAs from three independent transfections, to ensure reproducibility. […] In FIGS. 1-4, the percent of the 10^+ isoform was calculated by scanning the bands from three independent transfections and measuring the areas under the curves (by the IPLab Gel program from Scanalytics).
RT-PCR was performed in a manner as described in Example 4 (using primer pair: INS1/INS3), except that-mammalian cells were analyzed which had been 1:1 co-transfected with tau exon 10 containing minigene constructs (denoted SV 10) and with plasmids containing cDNA of various plicing regulators. […]

| Molecule | controlled change of exon 10 inclusion of the tau gene via clk2 phosphorylation levels [1] | effect on tau exon 10 inclusion (10+/10- isoform ratio by RT-PCR) [2] |
| --- | --- | --- |
| OC[C@H]1O[C@@H](n2cnc3cc(Cl)c(Cl)cc32)[C@H](O)[C@@H]1O [5,6-dichloro-1-b-D-ribofuranosylbenzimidazole] | changing the clk2 phosphorylation levels |  |
| C=C1[C@@H](O)[C@@H]2O[C@]3(CC[C@H](/C=C/[C@@H](C)[C@@H]4CC(C)=C[C@@]5(O[C@H](C[C@@](C)(O)C(=O)O)CC[C@H]5O)O4)O3)CC[C@H]2O[C@@H]1[C@@H](O)C[C@H](C)[C@H]1O[C@@]2(CCCCO2)CC[C@H]1C [okadaic acid] | changing the clk2 phosphorylation levels |  |
| ASF/SF2: serine/arginine-rich (SR) protein splicing regulator, expressed from cDNA under the CMV promoter |  | inhibited |
